Reference: ChEMBL document CHEMBL5465560, “Selectivity Literature for EUbOPEN Chemogenomic Library” (2024)

Tests used:
[1] = biological target: Cyclin-dependent kinase 13 (Homo sapiens, UniProt Q14004); experiment: Selectivity interaction (KinomeScan (DiscoverX)) EUB0001079a CDK13; details: at 1 µM
CDK2/Cyclin A2 = CDK2/Cyclin A2 (Homo sapiens, UniProt P24941); experiment: (§1) Selectivity interaction (Enzymatic assay (Reaction Biology)) EUB0001632a CDK2; format: protein-complex assay
[2] = biological target: Cyclin-dependent kinase 2/cyclin E (Homo sapiens, UniProt P24941); experiment: as §1; format: protein-complex assay
[3] = biological target: AMPK alpha1/beta1/gamma2 (Homo sapiens) (UniProt Q9UGJ0+Q9Y478+Q13131); experiment: (§2) Selectivity interaction (LanthaScreen Eu Kinase Binding Assay) EUB0001632a […]; format: protein-complex assay; details: at 10 µM
[4] = biological target: AMPK alpha1/beta1/gamma3 (Homo sapiens) (UniProt Q9Y478+Q13131+Q9UGI9); experiment: as §2; format: protein-complex assay; details: at 10 µM
[5] = biological target: AMPK alpha2/beta2/gamma1 (Homo sapiens) (UniProt P54646+O43741+P54619); experiment: as §2; format: protein-complex assay; details: at 10 µM
[6] = biological target: AMP-activated protein kinase alpha-2/beta-2/gamma-2 (Homo sapiens) (UniProt P54646+O43741+Q9UGJ0); experiment: as §2; format: protein-complex assay; details: at 10 µM
[7] = biological target: AMPK alpha1/beta2/gamma1 (Homo sapiens) (UniProt O43741+P54619+Q13131); experiment: as §2; format: protein-complex assay; details: at 10 µM
[8] = biological target: T1, Dual specificity protein kinase TTK (Homo sapiens) (UniProt P33981); experiment: Selectivity interaction (KinomeScan (DiscoverX)) EUB0000607a TTK; details: at 10 µM
T1 sequence (whole entry): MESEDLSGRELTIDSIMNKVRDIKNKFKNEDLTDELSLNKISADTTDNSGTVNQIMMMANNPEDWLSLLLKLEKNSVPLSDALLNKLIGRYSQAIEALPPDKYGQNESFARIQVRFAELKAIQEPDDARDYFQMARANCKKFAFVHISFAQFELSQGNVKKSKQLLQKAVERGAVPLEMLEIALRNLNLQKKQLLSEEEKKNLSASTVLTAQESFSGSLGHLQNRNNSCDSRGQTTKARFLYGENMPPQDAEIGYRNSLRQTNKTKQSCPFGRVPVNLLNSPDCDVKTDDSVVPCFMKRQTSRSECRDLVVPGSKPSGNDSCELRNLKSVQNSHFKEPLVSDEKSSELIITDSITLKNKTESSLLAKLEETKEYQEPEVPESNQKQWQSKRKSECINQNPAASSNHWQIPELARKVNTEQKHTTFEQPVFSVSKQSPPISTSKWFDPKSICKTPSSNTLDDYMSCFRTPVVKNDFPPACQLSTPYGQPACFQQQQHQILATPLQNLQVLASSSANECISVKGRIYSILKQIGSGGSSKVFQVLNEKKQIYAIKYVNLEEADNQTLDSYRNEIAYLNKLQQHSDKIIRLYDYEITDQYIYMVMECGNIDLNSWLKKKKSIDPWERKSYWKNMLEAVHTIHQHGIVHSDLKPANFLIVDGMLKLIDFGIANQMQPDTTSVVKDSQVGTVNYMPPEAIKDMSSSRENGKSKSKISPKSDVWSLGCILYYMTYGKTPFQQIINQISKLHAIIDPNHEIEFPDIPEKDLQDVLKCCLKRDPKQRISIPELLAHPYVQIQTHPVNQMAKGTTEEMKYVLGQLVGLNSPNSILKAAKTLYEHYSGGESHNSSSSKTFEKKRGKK

[9] = biological target: Ephrin type-A receptor 2 (Homo sapiens) (UniProt P29317); experiment: Selectivity interaction (KinomeScan (DiscoverX)) EUB0001049a EPHA2; details: at 1 µM
[10] = biological target: T2, Mitogen-activated protein kinase 13 (Homo sapiens) (UniProt O15264); experiment: Selectivity interaction (KinomeScan (DiscoverX)) EUB0001049a MAPK13; details: at 1 µM
T2 sequence (whole entry): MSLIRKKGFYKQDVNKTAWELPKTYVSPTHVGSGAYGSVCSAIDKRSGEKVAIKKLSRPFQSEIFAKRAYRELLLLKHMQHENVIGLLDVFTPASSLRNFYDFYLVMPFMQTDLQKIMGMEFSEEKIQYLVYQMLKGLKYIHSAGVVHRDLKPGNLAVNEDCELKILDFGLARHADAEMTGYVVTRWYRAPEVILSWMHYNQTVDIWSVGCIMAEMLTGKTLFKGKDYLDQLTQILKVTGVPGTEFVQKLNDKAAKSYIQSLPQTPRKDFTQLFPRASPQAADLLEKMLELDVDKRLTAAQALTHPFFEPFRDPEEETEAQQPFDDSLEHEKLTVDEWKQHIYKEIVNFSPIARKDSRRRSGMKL

[11] = biological target: T3, Ephrin type-A receptor 1 (Homo sapiens) (UniProt P21709); experiment: Selectivity interaction (Ambit KINOMEscan and KiNATiv profiling in Jurkat cells) EUB0000090b EPHA1; format: cell-based; details: at 1 µM
T3 sequence (whole entry): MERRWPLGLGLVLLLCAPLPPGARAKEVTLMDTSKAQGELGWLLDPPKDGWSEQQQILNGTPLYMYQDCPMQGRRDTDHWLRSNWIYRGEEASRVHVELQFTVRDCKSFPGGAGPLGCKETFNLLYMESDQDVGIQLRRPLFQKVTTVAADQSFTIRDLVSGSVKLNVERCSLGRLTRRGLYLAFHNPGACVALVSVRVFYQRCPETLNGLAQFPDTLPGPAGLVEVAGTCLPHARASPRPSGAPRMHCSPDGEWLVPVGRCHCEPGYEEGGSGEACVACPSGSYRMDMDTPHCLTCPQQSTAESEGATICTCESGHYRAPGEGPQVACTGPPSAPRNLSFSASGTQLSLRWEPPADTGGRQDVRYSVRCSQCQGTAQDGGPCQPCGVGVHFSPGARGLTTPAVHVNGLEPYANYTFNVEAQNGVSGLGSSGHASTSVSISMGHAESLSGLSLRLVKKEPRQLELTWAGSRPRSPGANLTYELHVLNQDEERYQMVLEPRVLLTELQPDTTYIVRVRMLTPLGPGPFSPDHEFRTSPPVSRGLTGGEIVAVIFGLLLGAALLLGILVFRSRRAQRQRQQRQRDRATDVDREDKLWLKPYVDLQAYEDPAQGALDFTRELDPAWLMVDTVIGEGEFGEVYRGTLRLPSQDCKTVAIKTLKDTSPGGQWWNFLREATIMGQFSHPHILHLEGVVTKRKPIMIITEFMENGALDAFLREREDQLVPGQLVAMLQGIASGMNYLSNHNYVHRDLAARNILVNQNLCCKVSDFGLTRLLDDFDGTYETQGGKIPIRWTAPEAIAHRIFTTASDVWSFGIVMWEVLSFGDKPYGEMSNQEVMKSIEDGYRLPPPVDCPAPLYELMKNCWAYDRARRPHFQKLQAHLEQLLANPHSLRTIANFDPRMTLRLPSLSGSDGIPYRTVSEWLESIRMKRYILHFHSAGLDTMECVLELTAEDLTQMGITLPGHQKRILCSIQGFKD

[12] = biological target: Macrophage colony-stimulating factor 1 receptor (Homo sapiens) (UniProt P07333); experiment: Selectivity interaction (Kinase screening (Nanosyn)) EUB0000604a CSF1R

Chain of Cyclin-dependent kinase 13 (Q14004 whole entry, looked up): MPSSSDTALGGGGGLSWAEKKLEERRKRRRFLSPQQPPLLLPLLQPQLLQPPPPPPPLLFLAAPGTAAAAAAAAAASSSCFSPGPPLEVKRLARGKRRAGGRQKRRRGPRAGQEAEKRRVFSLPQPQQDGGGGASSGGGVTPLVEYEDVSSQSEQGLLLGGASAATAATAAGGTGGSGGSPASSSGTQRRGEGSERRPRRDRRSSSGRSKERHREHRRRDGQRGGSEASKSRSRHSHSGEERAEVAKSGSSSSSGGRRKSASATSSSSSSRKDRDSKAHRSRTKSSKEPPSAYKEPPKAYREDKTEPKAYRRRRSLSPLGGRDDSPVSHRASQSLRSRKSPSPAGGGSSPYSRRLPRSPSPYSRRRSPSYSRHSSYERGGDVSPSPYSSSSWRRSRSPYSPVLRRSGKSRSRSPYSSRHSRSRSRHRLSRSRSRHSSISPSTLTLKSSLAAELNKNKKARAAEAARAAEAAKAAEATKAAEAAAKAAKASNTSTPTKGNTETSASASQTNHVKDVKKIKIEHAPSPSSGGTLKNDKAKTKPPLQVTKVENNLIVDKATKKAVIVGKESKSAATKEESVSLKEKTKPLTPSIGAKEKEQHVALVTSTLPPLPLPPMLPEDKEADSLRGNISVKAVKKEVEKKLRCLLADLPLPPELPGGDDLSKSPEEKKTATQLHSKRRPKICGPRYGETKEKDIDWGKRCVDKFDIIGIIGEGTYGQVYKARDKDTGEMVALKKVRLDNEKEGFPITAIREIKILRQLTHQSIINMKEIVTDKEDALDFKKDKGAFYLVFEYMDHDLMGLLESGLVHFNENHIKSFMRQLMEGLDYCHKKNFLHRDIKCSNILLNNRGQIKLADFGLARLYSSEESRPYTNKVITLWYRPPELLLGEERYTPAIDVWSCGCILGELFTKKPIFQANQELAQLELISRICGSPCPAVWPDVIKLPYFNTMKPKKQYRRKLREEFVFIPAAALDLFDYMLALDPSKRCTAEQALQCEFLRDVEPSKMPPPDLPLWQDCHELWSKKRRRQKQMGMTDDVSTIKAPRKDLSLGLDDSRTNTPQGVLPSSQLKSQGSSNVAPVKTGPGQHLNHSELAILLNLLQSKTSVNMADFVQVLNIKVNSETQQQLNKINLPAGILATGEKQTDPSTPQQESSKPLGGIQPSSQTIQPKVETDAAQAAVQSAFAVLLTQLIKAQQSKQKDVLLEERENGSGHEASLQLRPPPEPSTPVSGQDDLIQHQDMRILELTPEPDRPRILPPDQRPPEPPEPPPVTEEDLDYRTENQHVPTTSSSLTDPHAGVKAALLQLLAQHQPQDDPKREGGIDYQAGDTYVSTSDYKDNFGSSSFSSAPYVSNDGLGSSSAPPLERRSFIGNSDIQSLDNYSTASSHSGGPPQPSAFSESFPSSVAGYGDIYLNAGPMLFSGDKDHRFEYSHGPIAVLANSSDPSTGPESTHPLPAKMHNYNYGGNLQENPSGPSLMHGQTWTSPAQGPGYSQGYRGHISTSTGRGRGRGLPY
Chain of AMP-activated protein kinase alpha-2/beta-2/gamma-2 (Homo sapiens) (O43741 whole entry, looked up): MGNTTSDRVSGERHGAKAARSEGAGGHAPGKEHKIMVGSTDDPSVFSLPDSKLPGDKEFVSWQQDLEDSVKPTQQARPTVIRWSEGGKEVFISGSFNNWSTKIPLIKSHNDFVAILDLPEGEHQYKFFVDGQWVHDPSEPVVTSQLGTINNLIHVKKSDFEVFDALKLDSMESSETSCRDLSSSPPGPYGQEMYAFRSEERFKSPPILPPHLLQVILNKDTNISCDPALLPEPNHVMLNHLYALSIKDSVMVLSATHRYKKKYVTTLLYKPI
Chain of AMP-activated protein kinase alpha-2/beta-2/gamma-2 (Homo sapiens) (P54646 whole entry, looked up): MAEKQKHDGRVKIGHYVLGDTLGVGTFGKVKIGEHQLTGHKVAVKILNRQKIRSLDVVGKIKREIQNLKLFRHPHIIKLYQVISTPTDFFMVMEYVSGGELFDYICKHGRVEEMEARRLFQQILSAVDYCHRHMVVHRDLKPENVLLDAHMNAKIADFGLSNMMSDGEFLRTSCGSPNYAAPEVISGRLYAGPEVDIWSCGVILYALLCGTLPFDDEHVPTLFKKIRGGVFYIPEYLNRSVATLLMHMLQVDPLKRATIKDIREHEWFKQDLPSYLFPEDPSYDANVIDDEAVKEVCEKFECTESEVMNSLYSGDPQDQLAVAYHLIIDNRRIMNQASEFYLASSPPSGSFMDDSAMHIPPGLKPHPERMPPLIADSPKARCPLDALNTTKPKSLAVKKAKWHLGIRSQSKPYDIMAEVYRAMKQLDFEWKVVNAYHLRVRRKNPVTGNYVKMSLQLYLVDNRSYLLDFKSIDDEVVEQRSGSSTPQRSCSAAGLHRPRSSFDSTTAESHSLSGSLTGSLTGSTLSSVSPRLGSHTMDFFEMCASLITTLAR
Chain of AMP-activated protein kinase alpha-2/beta-2/gamma-2 (Homo sapiens) (Q9UGJ0 whole entry, looked up): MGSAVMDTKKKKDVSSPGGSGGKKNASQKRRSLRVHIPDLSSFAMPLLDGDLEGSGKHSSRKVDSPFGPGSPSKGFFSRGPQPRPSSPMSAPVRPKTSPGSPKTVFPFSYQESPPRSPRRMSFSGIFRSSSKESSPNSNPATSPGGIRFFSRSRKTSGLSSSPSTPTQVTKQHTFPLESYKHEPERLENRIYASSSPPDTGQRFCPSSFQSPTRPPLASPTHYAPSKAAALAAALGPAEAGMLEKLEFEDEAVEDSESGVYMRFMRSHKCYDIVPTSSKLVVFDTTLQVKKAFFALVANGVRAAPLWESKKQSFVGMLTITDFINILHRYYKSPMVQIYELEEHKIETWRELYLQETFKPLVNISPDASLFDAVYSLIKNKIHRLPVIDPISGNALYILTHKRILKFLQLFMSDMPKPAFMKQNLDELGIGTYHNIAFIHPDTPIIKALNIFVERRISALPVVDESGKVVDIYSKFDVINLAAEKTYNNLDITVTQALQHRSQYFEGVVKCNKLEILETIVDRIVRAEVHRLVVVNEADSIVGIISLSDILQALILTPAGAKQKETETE
Chain of AMPK alpha1/beta2/gamma1 (Homo sapiens) (O43741 whole entry, looked up): as the sequence (O43741 whole entry, looked up) above
Chain of AMPK alpha1/beta2/gamma1 (Homo sapiens) (P54619 whole entry, looked up): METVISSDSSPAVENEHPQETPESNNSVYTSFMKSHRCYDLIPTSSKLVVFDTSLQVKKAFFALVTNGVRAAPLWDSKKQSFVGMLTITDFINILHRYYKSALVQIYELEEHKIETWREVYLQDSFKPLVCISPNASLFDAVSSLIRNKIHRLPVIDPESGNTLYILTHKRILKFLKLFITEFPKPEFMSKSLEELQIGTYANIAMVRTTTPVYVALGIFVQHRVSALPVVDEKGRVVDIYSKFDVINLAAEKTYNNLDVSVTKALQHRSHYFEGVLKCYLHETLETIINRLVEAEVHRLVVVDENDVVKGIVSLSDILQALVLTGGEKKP
Chain of AMPK alpha1/beta2/gamma1 (Homo sapiens) (Q13131 whole entry, looked up): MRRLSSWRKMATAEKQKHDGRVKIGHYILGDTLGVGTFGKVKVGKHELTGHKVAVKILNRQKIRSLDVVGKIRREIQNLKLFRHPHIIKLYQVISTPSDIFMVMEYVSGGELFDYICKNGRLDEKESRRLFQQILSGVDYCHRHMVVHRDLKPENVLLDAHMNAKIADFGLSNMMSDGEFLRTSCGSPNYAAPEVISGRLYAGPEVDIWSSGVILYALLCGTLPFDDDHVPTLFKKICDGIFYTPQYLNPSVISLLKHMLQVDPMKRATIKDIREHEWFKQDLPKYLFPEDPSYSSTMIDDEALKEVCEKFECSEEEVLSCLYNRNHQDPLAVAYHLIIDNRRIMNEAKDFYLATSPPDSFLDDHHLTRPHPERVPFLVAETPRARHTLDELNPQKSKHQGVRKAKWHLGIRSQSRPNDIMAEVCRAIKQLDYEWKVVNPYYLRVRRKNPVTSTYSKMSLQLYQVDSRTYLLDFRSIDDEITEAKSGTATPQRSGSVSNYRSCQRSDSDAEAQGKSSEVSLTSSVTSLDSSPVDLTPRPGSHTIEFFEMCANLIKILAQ
Chain of Ephrin type-A receptor 2 (Homo sapiens) (P29317 whole entry): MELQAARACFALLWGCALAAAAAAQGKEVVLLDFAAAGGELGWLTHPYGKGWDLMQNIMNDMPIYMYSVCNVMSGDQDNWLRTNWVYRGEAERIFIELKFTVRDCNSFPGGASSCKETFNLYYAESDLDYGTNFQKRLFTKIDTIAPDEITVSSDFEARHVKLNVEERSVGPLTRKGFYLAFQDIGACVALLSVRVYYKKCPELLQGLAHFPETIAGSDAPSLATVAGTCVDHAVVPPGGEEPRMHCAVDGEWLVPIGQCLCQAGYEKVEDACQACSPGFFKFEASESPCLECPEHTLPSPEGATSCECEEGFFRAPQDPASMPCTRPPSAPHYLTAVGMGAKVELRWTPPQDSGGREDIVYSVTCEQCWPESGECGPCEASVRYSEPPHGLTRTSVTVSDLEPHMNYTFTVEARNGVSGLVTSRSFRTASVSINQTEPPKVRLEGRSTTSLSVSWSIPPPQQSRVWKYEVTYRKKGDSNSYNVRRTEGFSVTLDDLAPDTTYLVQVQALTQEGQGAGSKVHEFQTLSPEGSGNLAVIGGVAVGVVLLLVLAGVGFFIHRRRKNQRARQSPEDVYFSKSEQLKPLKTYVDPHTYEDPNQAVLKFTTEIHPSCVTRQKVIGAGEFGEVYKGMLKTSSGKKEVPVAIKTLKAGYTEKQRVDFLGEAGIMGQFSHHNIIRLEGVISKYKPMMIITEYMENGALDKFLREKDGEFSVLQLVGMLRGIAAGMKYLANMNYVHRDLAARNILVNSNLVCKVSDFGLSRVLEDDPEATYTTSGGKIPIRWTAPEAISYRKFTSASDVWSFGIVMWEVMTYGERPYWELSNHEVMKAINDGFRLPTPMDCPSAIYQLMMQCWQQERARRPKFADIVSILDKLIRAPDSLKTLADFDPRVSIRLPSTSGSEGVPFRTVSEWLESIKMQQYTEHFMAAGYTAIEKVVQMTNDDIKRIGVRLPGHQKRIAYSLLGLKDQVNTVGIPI

Q: With `Nc1cnc(N2CCc3cc(S(=O)(=O)Nc4c(F)cc(Cl)cc4F)cc(N4CCCC4=O)c32)nc1` [TP-020n] as the molecule, how does the % of control [1] read?
A: 100%

Q: With `Cn1cc(-n2cnc3c(NCc4nc5cc(Cl)c(Cl)cc5[nH]4)nc(N4CCOCC4)nc32)cn1` as the molecule, how does the IC50 (CDK2/Cyclin A2) read?
A: > 10 µM

Q: And the IC50 [2]?
A: > 10 µM

Q: What about the % of inhibition [3] of the same molecule?
A: 0.872%

Q: And the % of inhibition [4]?
A: 2.78%

Q: And the % of inhibition [5]?
A: -4.3%

Q: And the % of inhibition [6]?
A: 1.19%

Q: What about the % of inhibition [7] of the same molecule?
A: -9.67%

Q: How did the % of control [8] turn out when `CNC(=O)Nc1ccc(-c2nc(N3CC4CCC(C3)O4)c3cnn(C4CCC5(CC4)OCCO5)c3n2)cc1` was run?
A: 100%

Q: How did the % of control [9] turn out when `COc1cc(Nc2nc(C)cc(-c3cnn4nc(OC)ccc34)n2)cc(C(F)(F)F)c1` was run?
A: 87%

Q: What about the % of control [10] of the same molecule?
A: 95%

Q: `CN(C)C/C=C/C(=O)Nc1ccc(C(=O)N2CCCC(Nc3ncc(Cl)c(-c4c[nH]c5ccccc45)n3)C2)cc1` (stereo not drawn) was tested. Which % of control [11] did it give?
A: 73%

Q: For `Cc1cnc(Nc2ccc(F)cc2Cl)nc1-c1c[nH]c(C(=O)N[C@H](CO)c2cccc(Cl)c2)c1`, which % of inhibition [12] is on record?
A: 6%
